Values after ≈ are worked out from the molar mass of the structure shown. Where two headings read alike, the source gives them in different places. Some results are limits rather than exact numbers.

This is an account of results in US20030022821A1, “Bioactive peptides” (priority 1998, published 2003).

In one series the test system is Meth A tumors. Kind of series: Tumor regression, murine Meth A fibrosarcoma. Format: in vivo, mice. The conditions noted are these: for regression of Meth A tumors: injected intratumorally, treatment on day 7 and 10. On the procedure:
Specific pathogen-free CB6F1 (Balb/c×C57 BL/6) female mice of about 8 weeks of age were obtained from Charles River (Germany). The mice were kept on standard laboratory chow and water. Tumor bearing mice were serologically screened for viral (LDH, CMV) and mycoplasmic infection and in all cases tested negative.
After a single inoculation of 5×10^7 viable Meth A cells, different LF peptides were injected intratumorally (LFB-14-31, LFB 17-31 Pmc, 500 μg in a 50 μl dose; LFB 17-31, 1000 μg in a 50 μl dose), on day 7 and day 10. LFB 14-31 was also injected intraperitoneally (PBI), 500 μg/ml. Saline only was injected in the control mice (50 μl) (K1,K2,K3). The tumor diameter (mean of transversal and longitudinal) were measured with an electronic calipper.

For series [1], the system named is Staphylococcus aureus ATCC 25923. Format: cell-based. An outline of the steps: (§1)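 Inoculum of 2×10^6 CFU/ml, mid-logarithmic growth phase, in 1% Bacto Peptone water; standard microdilution, performed in triplicate.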
Series [2] deals with Escherichia coli ATCC 25922. Format: cell-based. An outline of the steps:
as §1

The subject of series [3] is Meth A cells (murine sarcoma cell line). Kind of series: Cytotoxicity on Meth A cells, MTT method. An outline of the steps:
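Meth A cells in RPMI with 10% FBS exposed to peptides (final e.g. […]) for 4 h, then MTT added for 2 h; formazan dissolved in acid isopropanol and absorbance read at 590 nm. Medium alone and 1% Triton X-100 defined 0% and 100% killing.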

Series [4] concerns human promyelotic leukemia cell line HL 60. The series is described as follows: Cytotoxicity on HL 60 cells, MTT. Format: cell-based.
Another series has as its system human red blood cells. The series is described as follows: Hemolytic assay. Format: cell-based. The conditions noted are these: red cells of human.
Series [5] is classed as physicochemical. The source says: Peptide W3714, with three additional tryptophan residues (a total of five tryptophan residues in the peptide), has decreased activity. […] This has been physically observed during MIC testing procedures when the peptide tended to precipitate at high concentrations.

Take `CSCC[C@H](NC(=O)[C@H](CCCNC(=N)N)NC(=O)[C@H](Cc1c[nH]c2ccccc12)NC(=O)[C@H](CCC(N)=O)NC(=O)[C@H](Cc1c[nH]c2ccccc12)NC(=O)[C@H](CCCNC(=N)N)NC(=O)[C@H](CCCNC(=N)N)NC(=O)[C@H](CSCNC(C)=O)NC(=O)[C@H](CCCCN)NC(=O)[C@H](Cc1ccccc1)NC(=O)[C@H](Cc1c[nH]c2ccccc12)NC(=O)[C@H](CCC(=O)O)NC(=O)[C@@H]1CCCN1)C(=O)N[C@@H](CCCCN)C(=O)N[C@@H](CCCCN)C(=O)N[C@@H](CC(C)C)C(=O)NCC(=O)N[C@@H](C)C(=O)O` [LFB 14-31]: the “regression of Meth A tumors” value in the series with Meth A tumors is “induced regression of the Meth A tumors”. In addition, in the series with Meth A tumors (treated intraperitoneally), the “eradication of Meth A tumors” value is “tumors were also eradicated”. The “MIC S. aureus” value in series [1] (ATCC 25923) was over 250 µg/mL. In addition, the “MIC S. aureus ATCC 25923” value was 200 µg/mL in series [1] (ATCC 25923) and 80 µM in series [1] (Table 1, value in brackets). In series [2] (ATCC 25922), the “MIC E. coli” value came to 70 µg/mL (≈ 28.2 µM). In addition, the “MIC E. coli ATCC 25922” value in series [2] (ATCC 25922) was 70 µg/mL; in series [2] (Table 1, value in brackets), 28 µM. Moreover, the “MethA IC50” value in series [3] (Table 7, peptide required to kill 50% of MethA cells) is on record as “no activity”. For the same molecule, the “cytotoxic effect on human HL 60 cells” value in series [4] is “no cytotoxic effect”. For the same molecule, the EC50 in the series on human red blood cells was over 404 µM.
Turning to `CSCC[C@H](NC(=O)[C@H](CCCNC(=N)N)NC(=O)[C@H](Cc1c[nH]c2ccccc12)NC(=O)[C@H](CCC(N)=O)NC(=O)[C@H](Cc1c[nH]c2ccccc12)NC(=O)[C@H](CCCNC(=N)N)NC(=O)[C@H](CCCNC(=N)N)NC(=O)[C@H](CSCNC(C)=O)NC(=O)[C@H](CCCCN)NC(=O)[C@@H](N)Cc1ccccc1)C(=O)N[C@@H](CCCCN)C(=O)N[C@@H](CCCCN)C(=O)N[C@@H](CC(C)C)C(=O)NCC(=O)N[C@@H](C)C(=O)O` [LFB 17-31, H2N-Phe-Lys-Cys-Arg-Arg-Trp-Gln-Trp-Arg-Met-Lys-Lys-Leu-Gly-Ala-COOH], in the series with Meth A tumors, the “regression of Meth A tumors” value is reported as “induced regression of the Meth A tumors”. The “MIC S. aureus ATCC 25923” value in series [1] (Table 1, value in brackets) worked out at 50 µM. The MIC S. aureus in series [1] (Table 3, unit assumed) was found to be 100 µg/mL (≈ 48.4 µM); in series [1] (Table 4, unit assumed), 100 µg/mL (≈ 48.4 µM); in series [1] (Table 6, unit assumed), 100 µg/mL (≈ 48.4 µM). Besides, in series [2] (Table 1, value in brackets), the “MIC E. coli ATCC 25922” value amounted to 20 µM. Also, the MIC E. coli in series [2] (Table 3), in series [2] (Table 4) and in series [2] (Table 6) was 50 µg/mL (≈ 24.2 µM) each time. The “cytotoxic effect on Meth A cells” value in series [3] (1 mg/ml, 4 hours incubation) is “weak effect”; in series [3] (concentrations up to 1 mg/ml, ½ hour incubation), “no significant cytotoxic effect”. Moreover, the “cytotoxic effect on human HL 60 cells” value in series [4] (at the concentration tested, 4 hours) is listed as “no cytotoxic effect”.
On to “H-FKWRRWWWRMKKLWA-OH [LFB W3, 7, 14, H2N-Phe-Lys-Trp-Arg-Arg-Trp-Trp-Trp-Arg-Met-Lys-Lys-Leu-Trp-Ala-COOH]”, for which the “solubility in aqueous solutions” value in series [5] is on record as “less soluble in aquous solutions”. For the same molecule, the “MIC S. aureus” value amounted to 20 µg/mL in series [1] (ATCC 25923) and 20 µg/mL in series [1] (Table 6, unit assumed). In addition, the “MIC E. coli” value in series [2] (ATCC 25922) and in series [2] (Table 6) was 20 µg/mL each time. Also, the “% Hemolysis 10 μg/ml” value with human red blood cells (10) came to 4.02%. Further, the “% Hemolysis 100 μg/ml” value in the series on human red blood cells (100) is listed as 66.1%.
